Patent US20240139333A1, “2,6-DICHLOROPHENYL ESTER COMPOUNDS AND USE THEREOF” (Fusion Pharmaceuticals Inc., priority 2021, published 2024)

How the values were obtained:
[1] = Temperature stability study in H2O; format: physicochemical
Method: 20° C.: To a 4 mL scintillation vial containing Compound A-E (in respective experiments; 0.8 mg) was added 4 mL of HPLC grade water to create a 0.2 mg/mL solution. 2 mL of this solution was added to a 2 mL HPLC vial and placed in the auto sampler of an HPLC-MS at 20° C. Timed aliquots at time (T)=15, 30, 60, 120, 240 and 480 minutes were taken and analyzed by HPLC-MS using elution method 1 (Table 4).
50° C.: To a 4 mL scintillation vial containing Compound A-E (in respective experiments; 0.8 mg) was added a stir bar followed by 4 mL of HPLC grade water to create a 0.2 mg/mL solution. The vial was capped and allowed to stir in a 50° C. oil bath for 8 hours. Timed aliquots at time (T) =15, 30, 60, 120, 240 and 480 minutes were taken and analyzed by HPLC-MS using elution method 1 (Table 4).

[2] = Competitive reactivity study between L-Lysine and HOPO nucleophile; conditions: L-Lysine 5 eq. / 1,2-HOPO 1 eq.
Method: (§1) General Experimental Protocol for Competitive Reactivity Study with L-Lysine and HOPO or HOA Nucleophiles
(§2) To a 4 mL scintillation vial containing Compound A (1 eq.) was added a stir bar followed by 70 μL of HPLC grade acetonitrile followed by a respective HOPO or HOA nucleophile (1 eq). In another 4 mL scintillation vial containing L-Lysine monohydrochloride (5 eq.) was added 130 μL HPLC grade water followed by diisopropylethylamine (5 eq.). The solutions were combined and allowed to stir at room temperature (22±2° C.) for 4 hours. Timed aliquots at time (T)=15, 30, 60, 120 and 240 minutes were taken and analyzed by HPLC-MS using elution method 1 (Table 7)

[3] = Competitive reactivity study between L-Lysine and HOA nucleophile; conditions: L-Lysine 5 eq. / N-Hydroxy-N-methyl benzamide 1 eq
Method: as §1, §2

| SMILES | % Remaining ([1]; 20° C., 15 min) | % Remaining ([1]; 20° C., 30 min) | % Remaining ([1]; 20° C., 60 min) | % Remaining ([1]; 20° C., 120 min) | % Remaining ([1]; 20° C., 240 min) | % Remaining ([1]; 20° C., 480 min) | % Remaining ([1]; 50° C., 15 min) | % Remaining ([1]; 50° C., 30 min) | % Remaining ([1]; 50° C., 60 min) | % Remaining ([1]; 50° C., 120 min) | % Remaining ([1]; 50° C., 240 min) | % Remaining ([1]; 50° C., 480 min) | further results |
| --- | --- | --- | --- | --- | --- | --- | --- | --- | --- | --- | --- | --- | --- |
| O=C(CCc1cccnc1)Oc1c(Cl)cccc1Cl [Compound A, 2,6-Dichlorophenyl-3-(pyridin-3-yl)propanoate] | 100% | 100% | 100% | 100% | 100% | 100% | 96.12% | 92.86% | 88.94% | 84.24% | 82.50% | 81.87% | % Compound A Remaining ([2]; 15 min): (88.33) %; % Compound A Remaining ([2]; 30 min): (74.52) %; % Compound A Remaining ([2]; 60 min): (28.29) %; % Compound A Remaining ([2]; 120 min): (2.01) %; % Compound A Remaining ([2]; 240 min): (0) %; % Compound A Remaining ([3]; 15 min): (65.77) %; % Compound A Remaining ([3]; 30 min): (14.83) %; % Compound A Remaining ([3]; 60 min): (1.63) %; % Compound A Remaining ([3]; 120 min): (0) % |
| O=C(CCc1cccnc1)Oc1c(F)c(F)cc(F)c1F [Compound C, 2,3,5,6-Tetrafluorophenyl-3-(pyridin-3-yl)propanoate] | 95.77% | 91.82% | 87.38% | 81.04% | 70.85% | 56.62% | 79.21% | 74.51% | 65.73% | 42.50% | 6.78% | 2.35% |  |
